The text below walks through data of paper PMC9138567, “Strategy to Enhance Anticancer Activity and Induced Immunogenic Cell Death of Antimicrobial Peptides by Using Non-Nature Amino Acid Substitutions” (Biomedicines, 2022).

A word on the pIC50: it is the negative decadic logarithm of the IC50, by convention in mol/L.

Each structure is given as a SMILES string. pIC50: −log10 of the molar value. Non-standard residues stand in square brackets, D forms with d. Residues, ends and D or L forms follow the SMILES beside them. Bip = N[C@@H](Cc1ccc(-c2ccccc2)cc1)C(=O)O; Dip = N[C@H](C(=O)O)C(c1ccccc1)c1ccccc1; 2Nal = N[C@@H](Cc1ccc2ccccc2c1)C(=O)O

Data set [1] has as its system PC 9 cells. Briefly: JC-1 staining (mitochondrial membrane potential). To be noted: PC 9, 2× IC50, 120 min, serum-free RPMI, fluorescence microscopy. The format is cell-based. On the procedure:
PC 9 cells were seeded at 40,000 cells/well in a RPMI medium and allowed to adhere for 24 h. […] The JC-1 dye was added at a final concentration of 1 μg/mL for 45 min. PC 9 cells were observed using the inverted fluorescent microscope Zeiss equipped with a 20× oil objective lens (Carl Zeiss, Jena, Germany). The experiments were repeated three times independently.

For data set [2], the system named is PC 9 cells. Nature of the data set: Propidium iodide/Hoechst 33342 staining (plasma membrane integrity). To be noted: PC 9, 2× IC50, 120 min, serum-free RPMI, fluorescence microscopy. The format is cell-based. On the procedure: To examine the membranolytic activities of peptides, the PI/Hoechst 33342 staining was performed in this study. The PI dye was used to stain damaged/dead cells, and Hoechst 33342 was used to specifically stain the nuclei of living cells. PC 9 cells were seeded at 20,000 cells/well in a RPMI medium and allowed to adhere for 48 h. Then, the cells were replaced with serum-free RPMI medium and then treated with 2× IC50 peptides at 37 °C for 120 min. Then, the PI and Hoechst 33342 were added at a final concentration of 1 μg/mL for 20 min. PC 9 cells were observed using the inverted fluorescent microscope Zeiss equipped with a 40× oil objective lens (Carl Zeiss, Jena, Germany). The experiments were repeated three times independently.

The test system of data set [3] is A549 adenocarcinomic alveolar basal epithelial cells. The format is cell-based. To be noted: 24 h. On the procedure:
(§1) The three non-small cell lung cancer cell lines, H1975, PC 9, A549, and oral squamous cell carcinoma cell line OECM-1 were cultured in RPMI 1640 medium supplemented with 10% fetal bovine serum, 2 mM L-glutamine and 1% penicillin/ streptomycin. The oral cancer cell line C9 was cultured in DMEM with 10% fetal bovine serum, 2 mM L-glutamine, and 1% penicillin/ streptomycin.
(§2) The MTT assay was applied for cell viability test according to previous protocol. […] Medium treated with PBS served as control group. […] After medium was removed, 100 µL DMSO was added to dissolve the formazan crystal. Absorbance was measured at 570 nm using a microplate reader (TECAN Sunrise ELISA Reader).

The subject of data set [4] is PC 9 non-small cell lung cancer cells with EGFR mutation. The format is cell-based. To be noted: 24 h. On the procedure:
as §1, §2

Data set [5] relates to C9 oral squamous cell carcinoma cells. The format is cell-based. To be noted: 24 h. The procedure: as §1, §2
For data set [6], the system named is OECM-1 gingival epidermoid carcinoma cells. The format is cell-based. To be noted: 24 h. The procedure:
as §1, §2

The subject of data set [7] is H1975 non-small cell lung carcinoma cells. The format is cell-based. To be noted: 24 h. On the procedure: as §1, §2
Data set [8] concerns PC 9 cells. Briefly: Extracellular ATP release, luciferin-luciferase assay. The format is cell-based. To be noted: for treatment time of highest ATP release (RLU): PC 9, 2× IC50, time points 0.5, 1, 1.5, 2 h, supernatant. The procedure:
PC 9 cells were seeded at the density of 10,000 cells/ well in the 96-well plate and allowed to adhere for 48 h. Cells were treated with Nal-P-113, Bip-P-113, and Dip-P-113 at 2× IC50 for 0.5, 1, 1.5, and 2 h. Untreated cells were served as the control group. After being treated for different time points (0.5, 1, 1.5, and 2 h), the supernatant of cells was analyzed using the ENLITEN ATP luciferase assay kit (Promega, Madison, WI, USA). The level of extracellular ATP chemiluminescence was measured using the Wallac VICTOR 3 Multilabel plate reader (PerkinElmer, Shelton, CT, USA).

Data set [9] has as its system PC 9 cells. Briefly: Extracellular HMGB1 release, Western blot. The format is cell-based. On the procedure:
The PC 9 cells were seeded at the density of 25,000 cells/well and left to adhere for 48 h. Cells were treated with Nal-P-113, Bip-P-113, and Dip-P-113 at 2× IC50 for 1, 2, and 4 h. After treatment of the peptides, the supernatant and lysate of the cells were collected separately for further experiments. The supernatant was collected after centrifugation at the speed of 1400× g. The cell lysate was washed twice using PBS before the sonication of the pellet using a bio-disruptor, and the disrupted pellet was centrifuged again for 10 min under 14,000 rpm at 4 °C. The concentration of the samples was quantified using the Bradford assay. Both supernatants and cell lysate were loaded and run on the sodium dodecyl sulfate polyacrylamide gel electrophoresis (SDS-PAGE) and were then electro transferred to a polyvinylidene difluoride (PVDF) membrane (Merck-Millipore, Burlington, MA, USA) in an electro-blot system, 30 V, 400 mA, for 75 min. The membrane was incubated in blocking buffer (5% skim milk, TBST buffer) for 1 h at room temperature and washed in TBST buffer three times. The anti-HMGB1 antibody (Abcam, Cambridge, UK, ab18256) was incubated overnight at 4 °C in the dilution ratio of 1:1000. The secondary antibody of a rabbit (diluted in 1:10,000) was incubated following rinsing with PBST three times for 2 h the next day at room temperature before being developed using a luminol reagent and imaged by a detected system (ImageQuant LAS 4000 mini).
A general note: Immunoblotting shows a protein as a band on a membrane.

Another data set relates to PC 9 cell line. The format is cell-based. To be noted: for cell survival rate: 4 h; for cells killed: PC 9, 2× IC50, within 2 h, MTT. On the procedure: A total of 5000 cells were incubated with Nal-P-113, Bip-P-113, and Dip-P-113 at 2× IC50 for 0.5, 1, 2, 3, and 4 h. After treatment, the MTT solution was further incubated for 3 h. Absorbance was measured at 570 nm on the microplate reader (TECAN Sunrise ELISA Reader) after the dissolution of the formazan crystal in 100 µL DMSO solution. The cell survival rate was calculated as aforementioned for cell viability assay.

A further data set concerns human fibroblasts (HFW). To be noted: MTT, 100 μg/mL; cited from earlier work. The procedure: The toxicity of the peptides was determined previously by measuring cell death using MTT assays against human fibroblasts (HFW).
For data set [10], the system named is PC 9 cells. Briefly: Cytochrome c release, ELISA of supernatant. The format is cell-based. To be noted: PC 9, 2× IC50, supernatant ELISA; for cytochrome c release, maximal value: highest over 0.5-4 h time course (Bip-P-113: at 4 h); for cytochrome c release, minimum value: lowest over 0.5-4 h time course (Bip-P-113: at 30 min). The procedure: PC 9 cells were seeded with 10,000 cells/well in the 96-well plate and allowed to adhere for 48 h and then treated with Nal-P-113, Bip-P-113, and Dip-P-113 at 2× IC50 for 0.5, 1, 1.5, 2, and 4 h. Untreated cells were used as a control group. Supernatants were collected after centrifugation at 16,000× g for 10 min. Samples were analyzed using the Quantikine ELISA Rat/ Mouse Cytochrome c Immunoassay (R & D Systems, Minneapolis, MN, USA) according to the manufacturer’s protocol. The optical density at the wavelength of 450 nm of each well was determined using the microplate reader (TECAN Sunrise ELISA Reader).
In general terms: In an ELISA, binding on a coated surface is turned into a signal by an enzyme label.

In the case of `CC(=O)N[C@@H](C)C(=O)N[C@@H](CCCCN)C(=O)N[C@@H](CCCNC(=N)N)C(=O)N[C@@H](Cc1ccc(-c2ccccc2)cc1)C(=O)N[C@@H](Cc1ccc(-c2ccccc2)cc1)C(=O)NCC(=O)N[C@@H](Cc1ccc(O)cc1)C(=O)N[C@@H](CCCCN)C(=O)N[C@@H](CCCNC(=N)N)C(=O)N[C@@H](CCCCN)C(=O)N[C@@H](Cc1ccccc1)C(=O)N[C@@H](Cc1ccc(-c2ccccc2)cc1)C(N)=O` [Bip-P-113] (Ac-AKR[Bip][Bip]GYKRKF[Bip]-NH2), the “mitochondrial membrane potential (JC-1)” value in the data set on PC 9 cells [1] is reported as “induced changes of the mitochondrial membrane potential”. Also, the “plasma membrane integrity (PI entry)” value in the data set with PC 9 cells [2] is reported as “cause damage to the plasma membrane integrity”. Moreover, the pIC50 is 4.31 in data set [3]; 4.19 in [4]; 4.38 in data set [5]; 4.37 in data set [6]; 4.20 in [7]. The “ATP release compared among the peptides” value in the data set with PC 9 cells [8] (PC 9, 2× IC50, at the 0.5 h peak) was “lowest ATP release”. For the same molecule, the “treatment time of highest ATP release (RLU)” value (shortened to “treatment time”) with PC 9 cells [8] turned out to be 0.5 h. In addition, the “HMGB1 protein in supernatant” value was “No HMGB1 protein was observed” with PC 9 cells [9] (PC 9, 2× IC50, 1 h treatment); “can hardly be detected” with PC 9 cells [9] (PC 9, 2× IC50, after 2 and 4 h). In addition, the cell survival rate entry with PC 9 cell line is given as “below 50%”. The cells killed result with PC 9 cell line is on record as “more than 80%”. Also, the cell death result with human fibroblasts (HFW) is recorded as “less than 10%”. For the same molecule, the “cytochrome c release, maximal value” in the data set with PC 9 cells [10] is approximately 15 ng/mL. In the data set on PC 9 cells [10], the “cytochrome c release, minimum value” worked out at 3 ng/mL.
Take `CC(=O)N[C@@H](C)C(=O)N[C@@H](CCCCN)C(=O)N[C@@H](CCCNC(=N)N)C(=O)N[C@H](C(=O)N[C@H](C(=O)NCC(=O)N[C@@H](Cc1ccc(O)cc1)C(=O)N[C@@H](CCCCN)C(=O)N[C@@H](CCCNC(=N)N)C(=O)N[C@@H](CCCCN)C(=O)N[C@@H](Cc1ccccc1)C(=O)N[C@H](C(N)=O)C(c1ccccc1)c1ccccc1)C(c1ccccc1)c1ccccc1)C(c1ccccc1)c1ccccc1` [Dip-P-113] (Ac-AKR[Dip][Dip]GYKRKF[Dip]-NH2): the “mitochondrial membrane potential (JC-1)” value with PC 9 cells [1] is “induced changes of the mitochondrial membrane potential”. Further, in the data set on PC 9 cells [2], the “plasma membrane integrity (PI entry)” value is given as “cause damage to the plasma membrane integrity”. For the same molecule, the pIC50 was 4.02 in [3], 4.15 in data set [4], 4.17 in [5] and 4.20 in data set [6]. Besides, the “treatment time” value with PC 9 cells [8] stood at 0.5 h. Further, the “HMGB1 protein in supernatant” value with PC 9 cells [9] (PC 9, 2× IC50, 1 h treatment) is on record as “No HMGB1 protein was observed”; in the data set on PC 9 cells [9] (PC 9, 2× IC50, after 2 and 4 h), “can clearly be seen”. The cell survival rate result in the data set with PC 9 cell line is “around 60%”. In addition, in the data set on human fibroblasts (HFW), the cell death entry is on record as “less than 10%”. The “cytochrome c release, maximal value” in the data set with PC 9 cells [10] is “around 3.5 ng/mL”. Besides, the “cytochrome c release, minimum value” in the data set on PC 9 cells [10] is “lower than 2 ng/mL”.
In the case of `CC(=O)N[C@@H](C)C(=O)N[C@@H](CCCCN)C(=O)N[C@@H](CCCNC(=N)N)C(=O)N[C@@H](Cc1ccc2ccccc2c1)C(=O)N[C@@H](Cc1ccc2ccccc2c1)C(=O)NCC(=O)N[C@@H](Cc1ccc(O)cc1)C(=O)N[C@@H](CCCCN)C(=O)N[C@@H](CCCNC(=N)N)C(=O)N[C@@H](CCCCN)C(=O)N[C@@H](Cc1ccccc1)C(=O)N[C@@H](Cc1ccc2ccccc2c1)C(N)=O` [Nal-P-113] (Ac-AKR[2Nal][2Nal]GYKRKF[2Nal]-NH2), in the data set with PC 9 cells [1], the “mitochondrial membrane potential (JC-1)” value is reported as “induced changes of the mitochondrial membrane potential”. Besides, the “plasma membrane integrity (PI entry)” value with PC 9 cells [2] was “cause damage to the plasma membrane integrity”. The pIC50 is 4.42 in data set [3]; 4.55 in data set [4]; 4.67 in data set [5]; 4.59 in [6]; 4.23 in [7]. For the same molecule, the “treatment time” value in the data set on PC 9 cells [8] was 0.5 h. Also, the “HMGB1 protein in supernatant” value in the data set with PC 9 cells [9] (PC 9, 2× IC50, 1 h treatment) is listed as “No HMGB1 protein was observed”; in the data set with PC 9 cells [9] (PC 9, 2× IC50, after 2 and 4 h), “can clearly be seen”. The cell survival rate entry in the data set on PC 9 cell line is “below 50%”. Further, the cells killed result in the data set with PC 9 cell line is given as “more than 80%”. In addition, the cell death result with human fibroblasts (HFW) is “less than 10%”. Moreover, the “cytochrome c release, maximal value” with PC 9 cells [10] is reported as “around 3.5 ng/mL”. Further, the “cytochrome c release, minimum value” in the data set with PC 9 cells [10] is on record as “lower than 2 ng/mL”.
For the molecule `CC(=O)N[C@@H](C)C(=O)N[C@@H](CCCCN)C(=O)N[C@@H](CCCNC(=N)N)C(=O)N[C@@H](Cc1c[nH]cn1)C(=O)N[C@@H](Cc1c[nH]cn1)C(=O)NCC(=O)N[C@@H](Cc1ccc(O)cc1)C(=O)N[C@@H](CCCCN)C(=O)N[C@@H](CCCNC(=N)N)C(=O)N[C@@H](CCCCN)C(=O)N[C@@H](Cc1ccccc1)C(=O)N[C@@H](Cc1c[nH]cn1)C(N)=O` [P-113, reference compound] (Ac-AKRHHGYKRKFH-NH2; N-terminus and C-terminus assumed), the pIC50 in data set [4] is less than 3.70.
Turning to `CC(=O)N[C@@H](C)C(=O)N[C@@H](CCCCN)C(=O)N[C@@H](CCCNC(=N)N)C(=O)N[C@@H](Cc1ccccc1)C(=O)N[C@@H](Cc1ccccc1)C(=O)NCC(=O)N[C@@H](Cc1ccc(O)cc1)C(=O)N[C@@H](CCCCN)C(=O)N[C@@H](CCCNC(=N)N)C(=O)N[C@@H](CCCCN)C(=O)N[C@@H](Cc1ccccc1)C(=O)N[C@@H](Cc1ccccc1)C(N)=O` [Phe-P-113] (Ac-AKRFFGYKRKFF-NH2), the pIC50 in data set [3] was 4.00; in [4], 3.76; in data set [5] it was 4.09; in data set [6] it was 3.92.
